The results in this text go back to publication PMC8877008, “Synthesis and Structure–Activity Relationship Studies of Benzimidazole-4,7-dione-Based P2X3 Receptor Antagonists as Novel Anti-Nociceptive Agents” (Molecules, 2022).

In general, IC50 refers to the point on the concentration scale where inhibition reaches its midpoint.

One series concerns the target T1, hP2X3R (Homo sapiens, UniProt P56373).
T1 construct: expressed in transfected cells
T1 sequence (P56373 1-397): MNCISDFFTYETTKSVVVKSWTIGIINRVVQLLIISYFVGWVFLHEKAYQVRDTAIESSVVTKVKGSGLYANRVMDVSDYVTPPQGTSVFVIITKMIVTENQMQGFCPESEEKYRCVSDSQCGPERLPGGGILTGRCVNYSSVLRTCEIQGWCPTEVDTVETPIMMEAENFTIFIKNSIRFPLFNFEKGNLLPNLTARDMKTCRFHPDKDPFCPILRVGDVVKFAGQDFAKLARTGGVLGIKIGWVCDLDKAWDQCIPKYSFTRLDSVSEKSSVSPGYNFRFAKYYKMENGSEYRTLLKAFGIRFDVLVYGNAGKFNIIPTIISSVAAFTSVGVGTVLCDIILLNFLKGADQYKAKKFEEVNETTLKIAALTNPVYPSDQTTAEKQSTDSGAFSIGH
Kind of series: Calcium influx (Fluo-4) evoked by α,β-meATP in HEK293 cells stably expressing hP2X3R. The note with it: for IC50: antagonistic activity, HEK293 cells expressing hP2X3R, agonist at EC70; for Decrease of P2X3R antagonistic activity compared with KCB-77033: relative to hit compound KCB-77033. Format: cell-based. As for the experimental part:
For the evaluation of P2XR activities, a cell-based assay system was employed to measure the level of fluorescence emission, based on Fluo-4 dye, during Ca^2+ influx evoked by αβmeATP in HEK293 cells stably expressing hP2X2/3R and hP2X3R. The library containing 8364 representative compounds for the screening of antagonistic activity was provided by the Korea Chemical Bank. The antagonistic activities were evaluated in the presence of P2X3R agonist of the concentration for EC70 value (200–250 nM for hP2X3R and 1–4 μM for hP2X2/3R highly expressed cell lines), and AF353 was used as the positive control antagonist for comparison. For the first round of screening, a single concentration (25 μM) of each library compound was tested to identify initial hit compounds, which were subsequently validated using both concentrations of 25 and 10 μM. Using a cut-off threshold of higher than 50% antagonistic activity and after confirming dose-dependency, 12 main hit compounds were selected.
3.4. Cell-Based Assay: Measurement of Calcium Influx by Fluorescence-Based Fluo-4 Dye Uptake in HEK293 Cells Expressing hP2X2/3 and hP2X3 Receptors
Human P2X3-expressing HEK293 cells were grown in DMEM supplemented with 10% fetal bovine serum and 1% antibiotic–antimycotic as a monolayer culture at 37 °C in a humidified atmosphere of 5% CO2. The 96-well black plates used in the experiments were prepared by coating them with 1× poly-D-lysine (A3890401, Thermo-Fisher Scientific Korea, Seoul, South Korea). An aliquot of 40 μL 1× poly-D-lysine was used to treat each of the wells in a flat orientation. After leaving the plates for at least 4 h to absorb the poly-D-lysine, the plates were allowed to dry for at least 6 h. The DMEM used in the culture of HEK293 cells was removed from the dish, followed by application of 3 mL 1× PBS for washing. Removal of 1× PBS was followed by application of 1 mL trypsin/EDTA, and the cells were collected by centrifugation at 1200 rpm for 2 min. The supernatant was removed, and 1 mL fresh DMEM added. The cells were resuspended in media and plates prepared with 4.8 × 10^4 cells/well in 56 μL/well. After 18 h of cell culture in the 96-well black plate, 56 μL of Fluo-4 dye (Fluo-4 Direct^TM Calcium Assay Kit, F10471, Invitrogen, Thermo-Fisher Scientific Korea, Seoul, South Korea) was added to each well, prepared according to the manufacturer’s protocol, and incubated for 50 min~1 h under culturing conditions. Then, 12.4 μL of the appropriate compound solution was added to each well, and the positive control was AF353 (A1612, Sigma Aldrich Korea, Seoul, South Korea) and the negative control was 5% DMSO. Plates were incubated at room temperature and sealed to avoid interference from light for 50 min~1 h. Flexstation 3 and its software provided by Molecular Devices was used for the measurement of fluorescence in real time of treatments using prepared α,β-meATP (M6517, Sigma Aldrich) solution to evoke calcium influx and increased cell membrane potential.
For the analysis of antagonistic activities, all data were calculated by Origin Pro 9.1 software provided by Originlab and the fitting of graphs was proceeded by the growth/sigmoidal and hill1 process within no weights for data selections. For the analysis of the behavioral assessments of pain models, all data are expressed as mean ± SEM. The dose–response data are presented as percentages of the maximum possible effect. Statistical significance was analyzed by independent t-test. The criterion for statistical significance was p < 0.05. The statistical analysis was performed using SPSS 25.0 software (IBM Corp., Armonk, NY, USA).

A short description of series [1]: Metabolic stability in microsomal fraction, mouse. It is filed as in vitro ADME. The note with it: mouse; Table 1.
Series [2] is described as follows: Metabolic stability in microsomal fraction, rat. It is filed as in vitro ADME. To be noted: Table 1.
Series [3] in a line: Metabolic stability in microsomal fraction, human. Format: in vitro ADME. To be noted: Table 1.

`Cc1nc2c([nH]1)C(=O)C(Cl)=C(Nc1ccc(F)cc1)C2=O` [10a, 6-Chloro-5-((4-fluorophenyl)amino)-2-methyl-1H-benzo[d]imidazole-4,7-dione]: at hP2X3R, the IC50 is 4910 ± 821 nM and the “Decrease of P2X3R antagonistic activity compared with KCB-77033” value is 4–5 fold. Besides, the “Metabolic Stability Mouse (%)” value in series [1] is listed as 18.4 ± 2.7%. The “Metabolic Stability Rat (%)” value in series [2] came to 26.2 ± 3.4%. In addition, the “Metabolic Stability Human (%)” value in series [3] is 43.1 ± 4.7%.
As to `Cc1nc2c([nH]1)C(=O)C(Cl)=C(Nc1ccc(Cl)cc1)C2=O` [10b, 6-Chloro-5-((4-chlorophenyl)amino)-2-methyl-1H-benzo[d]imidazole-4,7-dione], on hP2X3R, the half-maximal inhibitory concentration (IC50) worked out at 3720 ± 731 nM and the “Decrease of P2X3R antagonistic activity compared with KCB-77033” value was 4–5 fold.
Turning to `O=C1C(Cl)=C(Nc2ccc(F)cc2)C(=O)c2[nH]c(C(F)(F)F)nc21` [11a, 6-Chloro-5-((4-fluorophenyl)amino)-2-(trifluoromethyl)-1H-benzo[d]imidazole-4,7-dione], the 50% inhibitory concentration (IC50) at hP2X3R was found to be 1020 ± 111 nM. Also, the “Metabolic Stability Mouse (%)” value in series [1] came out at 95.7 ± 17.2%. Also, the “Metabolic Stability Rat (%)” value in series [2] is given as greater than 99%. In series [3], the “Metabolic Stability Human (%)” value is 81.4 ± 1.9%.
As for `O=C1C(Cl)=C(Nc2ccc(Cl)cc2)C(=O)c2[nH]c(C(F)(F)F)nc21` [11b, 6-Chloro-5-((4-chlorophenyl)amino)-2-(trifluoromethyl)-1H-benzo[d]imidazole-4,7-dione], the IC50 at hP2X3R stood at 825 ± 70 nM.
Still for that read-out and setting: to `O=C1C(Nc2ccc(F)c(F)c2)=C(Cl)C(=O)c2[nH]c(C(F)(F)F)nc21` [11c, 6-Chloro-5-((3,4-difluorophenyl)amino)-2-(trifluoromethyl)-1H-benzo[d]imidazole-4,7-dione] belongs 834 ± 117 nM; to `O=C1C(Nc2ccc(Cl)c(Cl)c2)=C(Cl)C(=O)c2[nH]c(C(F)(F)F)nc21` [11d, 6-Chloro-5-((3,4-dichlorophenyl)amino)-2-(trifluoromethyl)-1H-benzo[d]imidazole-4,7-dione], 808 ± 75 nM; to `O=C1C(Nc2ccc(F)cc2Cl)=C(Cl)C(=O)c2[nH]c(C(F)(F)F)nc21` [11e, 6-Chloro-5-((2-chloro-4-fluorophenyl)amino)-2-(trifluoromethyl)-1H-benzo[d]imidazole-4,7-dione], 660 ± 113 nM.
Turning to `O=C1C(Nc2ccc(F)c(Cl)c2)=C(Cl)C(=O)c2[nH]c(C(F)(F)F)nc21` [11f, 6-Chloro-5-((3-chloro-4-fluorophenyl)amino)-2-(trifluoromethyl)-1H-benzo[d]imidazole-4,7-dione], the 50% inhibitory concentration (IC50) at hP2X3R worked out at 703 ± 96 nM.
On to `O=C1C(Nc2ccc(Cl)cc2F)=C(Cl)C(=O)c2[nH]c(C(F)(F)F)nc21` [11g, 6-Chloro-5-((4-chloro-2-fluorophenyl)amino)-2-(trifluoromethyl)-1H-benzo[d]imidazole-4,7-dione], for which the IC50 on hP2X3R worked out at 526 ± 141 nM.
Consider `O=C1C(Nc2ccc(Cl)c(F)c2)=C(Cl)C(=O)c2[nH]c(C(F)(F)F)nc21` [11h, 6-Chloro-5-((4-chloro-3-fluorophenyl)amino)-2-(trifluoromethyl)-1H-benzo[d]imidazole-4,7-dione], for which, on hP2X3R, the IC50 was determined as 541 ± 103 nM.
Turning to `O=C1C(Nc2ccc(F)c(Br)c2)=C(Cl)C(=O)c2[nH]c(C(F)(F)F)nc21` [11i, 5-((3-Bromo-4-fluorophenyl)amino)-6-chloro-2-(trifluoromethyl)-1H-benzo[d]imidazole-4,7-dione], the half-maximal inhibitory concentration (IC50) on hP2X3R is 1040 ± 221 nM.
Regarding `O=C1C(Nc2ccc(Br)c(F)c2)=C(Cl)C(=O)c2[nH]c(C(F)(F)F)nc21` [11j, 5-((4-Bromo-3-fluorophenyl)amino)-6-chloro-2-(trifluoromethyl)-1H-benzo[d]imidazole-4,7-dione], on hP2X3R, the IC50 was 782 ± 139 nM.
As to `O=C1C(Nc2ccc(Cl)cc2I)=C(Cl)C(=O)c2[nH]c(C(F)(F)F)nc21` [11k, 6-Chloro-5-((4-chloro-2-iodophenyl)amino)-2-(trifluoromethyl)-1H-benzo[d]imidazole-4,7-dione], on hP2X3R, the IC50 worked out at 774 ± 166 nM.
Still for that read-out and setting: as for `COC(=O)N1CCC(NC2=C(Cl)C(=O)c3[nH]c(C(F)(F)F)nc3C2=O)CC1` [14a, Methyl-4-((6-chloro-4,7-dioxo-2-(trifluoromethyl)-4,7-dihydro-1H-benzo[d]imidazol-5-yl)amino)piperidine-1-carboxylate], the figure is 979 ± 104 nM; as for `CCC(=O)N1CCC(NC2=C(Cl)C(=O)c3[nH]c(C(F)(F)F)nc3C2=O)CC1` [14b, 6-Chloro-5-((1-propionylpiperidin-4-yl)amino)-2-(trifluoromethyl)-1H-benzo[d]imidazole-4,7-dione], 921 ± 117 nM.
For the compound `O=C1C(NC2CCN(C(=O)c3ccccc3)CC2)=C(Cl)C(=O)c2[nH]c(C(F)(F)F)nc21` [14c, 5-((1-Benzoylpiperidin-4-yl)amino)-6-chloro-2-(trifluoromethyl)-1H-benzo[d]imidazole-4,7-dione], the IC50 at hP2X3R is 864 ± 112 nM.
Consider `O=C1C(NC2CCN(C(=O)c3ccc(F)cc3)CC2)=C(Cl)C(=O)c2[nH]c(C(F)(F)F)nc21` [14d, 6-Chloro-5-((1-(4-fluorobenzoyl)piperidin-4-yl)amino)-2-(trifluoromethyl)-1H-benzo[d]imidazole-4,7-dione], for which, on hP2X3R, the IC50 is 450 ± 59 nM.
Consider `O=C1C(NC2CCN(C(=O)c3ccc(Cl)cc3)CC2)=C(Cl)C(=O)c2[nH]c(C(F)(F)F)nc21` [14e, 6-Chloro-5-((1-(4-chlorobenzoyl)piperidin-4-yl)amino)-2-(trifluoromethyl)-1H-benzo[d]imidazole-4,7-dione], for which the concentration for half-maximal inhibition (IC50) on hP2X3R came to 481 ± 20 nM.
On to `O=C1C(NC2CCN(C(=O)c3ccc(Br)cc3)CC2)=C(Cl)C(=O)c2[nH]c(C(F)(F)F)nc21` [14f, 5-((1-(4-Bromobenzoyl)piperidin-4-yl)amino)-6-chloro-2-(trifluoromethyl)-1H-benzo[d]imidazole-4,7-dione], for which the IC50 on hP2X3R was determined as 804 ± 91 nM.
Turning to `O=C1C(NC2CCN(C(=O)c3ccc(Cl)c(Cl)c3)CC2)=C(Cl)C(=O)c2[nH]c(C(F)(F)F)nc21` [14g, 6-Chloro-5-((1-(3,4-dichlorobenzoyl)piperidin-4-yl)amino)-2-(trifluoromethyl)-1H-benzo[d]imidazole-4,7-dione], the 50% inhibitory concentration (IC50) at hP2X3R was 577 ± 66 nM.
For `O=C1C(NC2CCN(C(=O)c3ccc(F)c(Cl)c3)CC2)=C(Cl)C(=O)c2[nH]c(C(F)(F)F)nc21` [14i, 6-Chloro-5-((1-(3-chloro-4-fluorobenzoyl)piperidin-4-yl)amino)-2-(trifluoromethyl)-1H-benzo[d]imidazole-4,7-dione], the IC50 on hP2X3R was found to be 505 ± 51 nM.
On the same count and under the same terms, as for `N#Cc1ccc(C(=O)N2CCC(NC3=C(Cl)C(=O)c4[nH]c(C(F)(F)F)nc4C3=O)CC2)cc1` [14j, 4-(4-((6-Chloro-4,7-dioxo-2-(trifluoromethyl)-4,7-dihydro-1H-benzo[d]imidazol-5-yl)amino)piperidine-1-carbonyl)benzonitrile], the figure is 4440 ± 480 nM.
For `O=C1C(NC2CCN(C(=O)c3ccc(C(F)(F)F)cc3)CC2)=C(Cl)C(=O)c2[nH]c(C(F)(F)F)nc21` [14k, 6-Chloro-2-(trifluoromethyl)-5-((1-(4-(trifluoromethyl)benzoyl)piperidin-4-yl)amino)-1H-benzo[d]imidazole-4,7-dione], at hP2X3R, the IC50 is greater than 10000 nM.
